For 1 compound, IC50 results are on record in patent US5693815A, “Peptides” (Schering Corporation, priority 1995, dated 1997).

As usually defined, the pIC50 is the negative decadic logarithm of the IC50, by convention in mol/L. The low end stands for a high IC50, the high end for a low IC50.

Molecules are shown by their SMILES. pIC50: −log10 of the molar value.

The assay has as its target HIV-1 protease (Human immunodeficiency virus type 1 group M subtype B, UniProt P04585). In words: Inhibition of proteolytic activity of HIV-1 protease, Test 1 (method of Louis et al.). The format is biochemical. The text has this:
TEST 1--INHIBITION OF PROTEOLYTIC ACTIVITY OF HIV-1-PROTEASE
The ability of compounds of the invention to inhibit the proteolytic activity of HIV-1 protease can be determined by using the method of Louis, et al., Biochem. Biophys. Res. Comm. 159:87-94, (1989), which is herein incorporated by reference. In using the method of Louis et al., HIV Substrate III, His-Lys-Ala-Arg-Val-Leu-pNO2 Phe-Glu-Ala-Nle-Ser-NH2 purchased from Bachem Bioscience, Inc. Philadelphia, Pa. can be used in place of the nonapeptide substrate […]amide.

Compound `CC(C)(C)NC(=O)c1ccccc1SCC(O)C(Cc1ccccc1)NC(=O)C1CC2CCCCC2N1C(=O)OC(C)(C)C` (stereo not shown) [U, 1-[(1,1-dimethylethoxy)carbonyl]-N-[3-[[2-[[(1,1-dimethylethyl)amino]carbonyl]phenyl]thio]-2(R and/or S)-hydroxy-1(R and/or S)-(phenylmethyl)-propyl]octahydroindole-2-carboxamide] had a pIC50 of 4.42.
